{"source": "patent US20180030482A1", "about": "(Moralco B.V., priority 2014, published 2018)", "key": {"[1]": {"settings": "kH=Ca/Pg, concentration in water over partial pressure in the gas phase; cited from earlier work"}, "[2]": {"system": "lactic acid bacteria, belonging to Lactobacillus, Pediococcus, Leuconostoc and Weissella", "experiment": "Semi-anoxic co-culture of yeast with lactic acid bacteria at increasing acetaldehyde concentrations", "type": "cell-based", "settings": "increasing concentrations of acetaldehyde in subsequent batches; without acetaldehyde the bacteria remained present", "experimental": "Media for plates (1.5% agar) for S. cerevisiae were the mineral salts medium supplement with 2% glucose and for lactic acid bacteria the de Man, Rogosa and Sharpe (MRS) medium. Cycloheximide (0.1 g/l) was added to the plates in case mixed cultures of yeast and lactic acid bacteria were studied.\nSemi-anoxic batch cultivation of the yeasts together with lactic acid bacteria was done at 30° C. in 100-ml Erlenmeyer flasks. The flasks contained 50 ml mineral salts medium supplied with glucose (12 g/l) and they were incubated without shaking. Air could enter in the flasks via cotton plugs.\nS. cerevisiae CEN.PK2-1C was subjected to evolutionary engineering analogous to the procedure described above, except that now semi-anoxic conditions were employed. Eight strains of lactic acid bacteria, belonging to Lactobacillus, Pediococcus, Leuconostoc and Weissella, were inoculated as well. The dynamics of the quantitative growth of the 9 organisms thus present as co-culture was followed during the procedure of evolutionary engineering. During each successive transfer step, the suspension after growth was plated on media that allow growth of either S. cerevisiae or of the 8 strains of lactic acid bacteria. […] Under this circumstance, the lactic acid bacteria remained present in the system."}, "[3]": {"system": "Lactococcus lactis", "settings": "cited from earlier work"}, "[4]": {"system": "S. cerevisiae CEN.PK2-1C", "experiment": "Evolutionary engineering for enhanced tolerance to acetaldehyde (oxic batch cultivation)", "type": "cell-based, Saccharomyces cerevisiae", "settings": "batch system; compared to the parent strain in the absence of acetaldehyde", "experimental": "The flasks contained 20 ml mineral salts medium supplied with glucose (12 g/l) and they were incubated on a rotary shaker at 400 r.p.m. Air could enter in the flasks via cotton plugs.\nThe organisms were cultivated under oxic conditions in a batch-wise mode. The initial pH of the mineral salts medium was set at 6 by titrating with KOH and glucose was added at 12 g/l. […] The newly acquired strains retained their ability to withstand higher acetaldehyde levels also when cultivating them anoxically in mineral salts medium with glucose and for prolonged periods of times. This subculturing was by taking an aliquot of 0.5 ml from a culture that had consumed all glucose and by transferring this inoculum to fresh medium (50 ml)."}, "[5]": {"system": "Ethanol Red strain", "experiment": "Batch fermentation testing acetaldehyde additions at high ethanol concentrations", "type": "cell-based", "settings": "acetaldehyde added once ethanol had reached 80 g/l, controlled between 0.06 and 0.1 g/l; 180 minutes without acetaldehyde", "experimental": "The stirring speed was set at 300 r.p.m. and the pH of the mineral salts medium containing 280 g/l glucose was kept at 5 by adding 2 M NaOH. The condenser at the outlet of the gas stream was connected to a cryostat and cooled at 2° C. The condensate was returned into the fermentation vessel. […] Sampling was from a loop kept at 35° C. for circulating gas from the headspace. […] The solution entered in the aqueous phase via a needle at the outlet of the tubing.\nThe mineral salts medium was employed with the addition of yeast extract at 1 g/l. The initial cell concentration was 0.5 g/l dry biomass. Air was supplied to the headspace of the fermenter at 15 ml/min during the first 2 hours of cultivation after which conditions were kept anoxic. Glucose was added initially at 230 g/l. […] The concentration was monitored from the headspace and controlled in the fermenter liquid between 0.06 and 0.1 g/l. In a control experiment, no acetaldehyde was supplied."}, "[6]": {"system": "S. cerevisiae CBS 8066", "experiment": "Small-scale batch cultivation testing the effect of acetaldehyde on formation of ethanol and glycerol", "type": "cell-based, Saccharomyces cerevisiae", "settings": "1.76 mM acetaldehyde in, single addition at start; 280 mM glucose at start; 90 minutes of incubation", "experimental": "(§1) The column was eluted at 60° C. with 0.5 g/l H2S04 at a flow rate of 0.6 ml min^−1 . Detection was by means of a Waters 2410 refractive-index detector and a Waters 2487 UV detector. Initial and final glycerol concentrations were further determined using an enzymatic determination kit (Rbiopharm AG, Darmstadt, Germany).\nCarbon dioxide was allowed to escape from the bottles by inserting a needle in the septum of the cap. The bottles were incubated stationary. A sample per bottle was taken at the start of the experiment and after 90 minutes of incubation.\nThe initial cell concentration was 0.45 g/l dry biomass. Acetaldehyde was supplied to the bottle in a single addition at the start of the incubation. In a separate control run, no acetaldehyde was supplied."}, "[7]": {"system": "S. cerevisiae CBS 8066", "experiment": "Anoxic chemostat fermentation under glucose limitation in absence or presence of acetaldehyde", "type": "cell-based, Saccharomyces cerevisiae", "settings": "for Δ ethanol produced / Δ glycerol produced: relative to steady state 1 without acetaldehyde; for acetaldehyde concentration in chemostat sample / acetic acid concentration in chemostat sample / ethanol concentration in chemostat sample / glucose concentration in chemostat sample / glycerol concentration in chemostat sample / pyruvic acid concentration in chemostat sample / succinic acid concentration in chemostat sample: dilution rate 0.11 h^−1, duplicate samples A and B", "experimental": "as §1\nThe mineral salts medium employed was based on standard media (Bruinenberg et al. 1983. Journal of General Microbiology 129:965-971; Verduin et al 1990. Journal of General Microbiology 136:395-403). It contained the following per liter of demineralized water: (NH4)2SO4, 5 g; KH2PO4, 3 g; MgSO4.7H2O, 0.5 g; EDTA, 15 mg; ZnSO4.7H20, 4.5 mg; CoCl2 6H2O, 0.3 mg; MnCl2 4H20, 1 mg; CuSO4 5H20, 0.3 mg; CaCl2. 2H20, 4.5 mg; FeSO4 7H20, 3 mg; Na2MoO4. 2H2O, 0.4 mg; H3BO3, 1 mg; KI, 0.1 mg; and 0.025 ml silicone antifoam (BDH). After heat sterilization at 120° C. and cooling, filter sterilized vitamins were added: biotin, 0.05 mg; calcium pantothenate, 1 mg; nicotinic acid, 1 mg; inositol, 25 mg; thiamin.HCl, 1 mg; pyridoxine.HCl, 1 mg; and para-aminobenzoic acid, 0.2 mg. Ergosterol and Tween 80 were dissolved in pure ethanol and steamed at 100° C. for 10 minutes before they were added to the medium to give final concentrations of 10 and 400 mg/l, respectively, and a final concentration of 38 mM ethanol. […] The sterilized glucose solution was added to the sterile mineral salts medium to give the required final concentration.\nAnoxic chemostat cultivation of the yeasts was done at 30° C. in a fermenter with a working volume of 1 liter and at a stirring speed of 600 r.p.m. The pH was automatically controlled at pH=5 by titration with 2 M KOH. The condenser at the outlet of the gas stream was connected to a cryostat and cooled at 2° C. The condensate was returned into the fermentation vessel. The tubing on the entire fermenter set-up (including medium- and waste-reservoirs) consisted of material (Norprene tubing) that is very poorly permeable for oxygen. The fermenter and the medium reservoir (with a magnetic stirrer) were sparged with certificated ultra-pure nitrogen prior to the addition of acetaldehyde to the reservoir.\nStrain S. cerevisiae CBS 8066 was cultivated in chemostat culture at a dilution rate of 0.11 h^−1. The glucose concentration in the medium reservoir was […] in each run. Three separate steady states were obtained in either the absence or presence of acetaldehyde. The effect of the aldehyde on the fermentation was tested by adding the compound to the medium reservoir after a steady state situation in its absence (medium and samples “1”) had been established. […] In each of the three steady states (after 3-5 volume changes), the fermentation medium in the fermenter was analyzed for various compounds as summarized in Tables 1 and 2."}, "[8]": {"settings": "Steady state 2 (6 mM acetaldehyde supplied)"}, "[9]": {"settings": "Steady state 3 (15 mM acetaldehyde supplied)"}, "[10]": {"settings": "steady state 2, 6 mM acetaldehyde supplied"}, "[11]": {"settings": "steady state 3, 15 mM acetaldehyde supplied"}}, "note": "Several values for one entry are separate records, joined by “and”; a condition that tells them apart may be missing. Identical values can stand only once.", "data": [{"smiles": "CC=O", "note": "[acetaldehyde]", "values": [{"measurement": "Henry's law constant kH", "setting": "[1]", "result": 15, "unit": "M/atm"}, {"measurement": "fate of the lactic acid bacteria in the co-culture", "setting": "[2]", "result": "disappeared"}, {"measurement": "concentration resulting in a reduction of the growth rate by 50%", "setting": "[3]", "result": 0.4, "unit": "kg/m^3"}, {"measurement": "minimum inhibitory concentration (MIC)", "setting": "[3]", "result": "35 mM and 1.5 kg/m^3"}, {"measurement": "IC50", "setting": "[3]; read-out: concentration resulting in a reduction of the growth rate by 50%", "result": 9, "unit": "mM"}, {"measurement": "acetaldehyde concentration in whose presence the evolved strain grew without a noticeable change in growth rate", "setting": "[4]", "result": 0.5, "unit": "g/L"}, {"measurement": "time required to reach 98 g/l of ethanol in the liquid", "setting": "[5]", "result": 158, "unit": "min"}, {"measurement": "Acetaldehyde at end", "setting": "[6]", "result": 1.01, "unit": "mM"}, {"measurement": "Ethanol at end", "setting": "[6]", "result": 6.67, "unit": "mM"}, {"measurement": "Glycerol at end", "setting": "[6]", "result": 0.58, "unit": "mM"}, {"measurement": "acetaldehyde consumed", "setting": "[7]; [8]", "result": -6, "unit": "mM"}, {"measurement": "glucose consumed", "setting": "[7]; [8]", "result": 136, "unit": "mM"}, {"measurement": "Δ ethanol produced", "setting": "[7]; [8]", "result": 15, "unit": "mM"}, {"measurement": "Δ glycerol produced", "setting": "[7]; [8]", "result": -6, "unit": "mM"}, {"measurement": "acetaldehyde consumed", "setting": "[7]; [9]", "result": -16, "unit": "mM"}, {"measurement": "glucose consumed", "setting": "[7]; [9]", "result": 136, "unit": "mM"}, {"measurement": "Δ ethanol produced", "setting": "[7]; [9]", "result": 27, "unit": "mM"}, {"measurement": "Δ glycerol produced", "setting": "[7]; [9]", "result": -11, "unit": "mM"}, {"measurement": "acetaldehyde concentration in chemostat sample", "setting": "[7]; [10]", "result": 0.03, "unit": "mM"}, {"measurement": "acetic acid concentration in chemostat sample", "setting": "[7]; [10]", "result": "0.64 mM and 0.54 mM"}, {"measurement": "ethanol concentration in chemostat sample", "setting": "[7]; [10]", "result": "243.13 mM and 244.74 mM"}, {"measurement": "glucose concentration in chemostat sample", "setting": "[7]; [10]", "result": "0.48 mM and 0.46 mM"}, {"measurement": "glycerol concentration in chemostat sample", "setting": "[7]; [10]", "result": "9.47 mM and 9.60 mM"}, {"measurement": "pyruvic acid concentration in chemostat sample", "setting": "[7]; [10]", "result": "0.56 mM and 0.51 mM"}, {"measurement": "succinic acid concentration in chemostat sample", "setting": "[7]; [10]", "result": "0.43 mM and 0.45 mM"}, {"measurement": "acetaldehyde concentration in chemostat sample", "setting": "[7]; [11]", "result": 0.04, "unit": "mM"}, {"measurement": "acetic acid concentration in chemostat sample", "setting": "[7]; [11]", "result": "0.78 mM and 0.69 mM"}, {"measurement": "ethanol concentration in chemostat sample", "setting": "[7]; [11]", "result": "255.35 mM and 255.25 mM"}, {"measurement": "glucose concentration in chemostat sample", "setting": "[7]; [11]", "result": "0.44 mM and 0.48 mM"}, {"measurement": "glycerol concentration in chemostat sample", "setting": "[7]; [11]", "result": "4.04 mM and 4.02 mM"}, {"measurement": "pyruvic acid concentration in chemostat sample", "setting": "[7]; [11]", "result": 0.48, "unit": "mM"}, {"measurement": "succinic acid concentration in chemostat sample", "setting": "[7]; [11]", "result": "0.45 mM and 0.50 mM"}]}, {"smiles": "O=O", "note": "[oxygen]", "values": [{"measurement": "Henry's law constant kH", "setting": "[1]", "result": "1.3*10^−3 M/atm"}]}, {"smiles": "CCO", "note": "[ethanol]", "values": [{"measurement": "Henry's law constant kH", "setting": "[1]", "result": "approximately 200 M/atm"}]}]}
